We go through two compounds from patent publication US20070134814A1, “Methods and compositions for the detection of calcifying nano-particles, identification and quantification of associated proteins thereon, and correlation to disease” (priority 2005, published 2007).

The assay has as its system freshly collected human blood. Put plainly: Whole blood clotting slide test. The settings on record: 10 μl solution added to plain glass slide before blood.

Description: The method allows for measuring changes in the clotting time induced by contact with foreign surfaces, i.e. plain glass or coated glass, and for studying the effects of drugs on the clotting induced by foreign surface.
Venous blood was collected with venipuncture from 19 random volunteers participating in CNP epidemiological study (Ethical Committee Approval, Kuopio University). Volunteers signed an informed consent. Blood was collected with venipuncture in siliconized glass serum tubes, EDTA plasma tubes or citrate plasma tubes (Terumo), and was tested immediately after collection for whole blood clotting time on different test platforms.
200 μl of freshly drawn blood was added to pre-coated or plain glass slides which were put on a tilting shaker 15 tilts/minute at room temperature until formation of a solid clot was observed as “frozen droplet”. Experiments were carried out usually in triplicate to determine reproducibility of tests. CV % for the triplicate tests were less than 6.81% (CNP-coated slide, n=13), 8.79% (apatite-coated slide, n=15) and 10.37% (non-treated control slide, n=15). Clotting time results were analyzed by Bonferroni (Dunn) t Test (Table 1).
Therefore, to study the effects of apatite on clotting, a whole blood clotting slide test was developed. […]

As for `O=C([O-])CN(CCN(CC(=O)[O-])CC(=O)[O-])CC(=O)[O-].[Ca+2].[Na+].[Na+]` [Calcium EDTA], the “effect on clotting time” value is “did not affect the clotting time”.

Consider `CC(O)(P(=O)(O)O)P(=O)(O)O` [etidronate], for which the “effect on clotting time” value is recorded as “did not affect the clotting time”.
